{"source": "patent US20080132534A1", "about": "“Pharmaceutical composition comprising a macrolide immunomodulator” (priority 2003, published 2008)", "origin": "cited, not measured here", "tested_on": "allogeneic kidney transplantation", "details": "rat, oral administration, suppression of systemic immune response", "data": [{"smiles": "C=CC[C@@H]1/C=C(\\C)C[C@H](C)C[C@H](OC)[C@H]2O[C@@](O)(C(=O)C(=O)N3CCCC[C@H]3C(=O)O[C@H](/C(C)=C/[C@@H]3CC[C@@H](O)[C@H](OC)C3)[C@H](C)[C@@H](O)CC1=O)[C@H](C)C[C@@H]2OC", "note": "[tacrolimus]", "values": [{"measurement": "minimum effective dose (MED)", "result": 14, "unit": "mg/kg"}]}]}
